Test results reported in PubChem BioAssay (NCI).
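At the GI50, growth is halved. TGI: concentration producing complete growth inhibition.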

How the values were obtained:
Experiment in all cases: inhibition of tumour cell growth, NCI panel, 384-well format
NCI-H460 NSCLC = test system: NCI-H460 NSCLC
HCT-15 colon = test system: HCT-15 colon
NCI/ADR-RES ovarian = test system: NCI/ADR-RES ovarian
A549 NSCLC = test system: A549 NSCLC
MOLT-4 leukemia = test system: MOLT-4 leukemia
HOP-62 NSCLC = test system: HOP-62 NSCLC
SF-539 CNS = test system: SF-539 CNS
CAKI-1 renal = test system: CAKI-1 renal
DU-145 prostate = test system: DU-145 prostate
UO-31 renal = test system: UO-31 renal
OVCAR-8 ovarian = test system: OVCAR-8 ovarian
MCF7 breast = test system: MCF7 breast

| Structure (SMILES) | GI50 (NCI-H460 NSCLC) [µM] | TGI (NCI-H460 NSCLC) [µM] | GI50 (HCT-15 colon) [µM] | TGI (HCT-15 colon) [µM] | GI50 (NCI/ADR-RES ovarian) [µM] | TGI (NCI/ADR-RES ovarian) [µM] | GI50 (A549 NSCLC) [µM] | TGI (A549 NSCLC) [µM] | GI50 (MOLT-4 leukemia) [µM] | TGI (MOLT-4 leukemia) [µM] | GI50 (HOP-62 NSCLC) [µM] | TGI (HOP-62 NSCLC) [µM] | GI50 (SF-539 CNS) [µM] | TGI (SF-539 CNS) [µM] | GI50 (CAKI-1 renal) [µM] | TGI (CAKI-1 renal) [µM] | GI50 (DU-145 prostate) [µM] | TGI (DU-145 prostate) [µM] | GI50 (UO-31 renal) [µM] | TGI (UO-31 renal) [µM] | also measured |
| --- | --- | --- | --- | --- | --- | --- | --- | --- | --- | --- | --- | --- | --- | --- | --- | --- | --- | --- | --- | --- | --- |
| O=C1CC(c2ccc(N3CCOCC3)cc2)(c2ccsc2)NC(=O)C1Sc1ccccc1Cl (stereo not drawn) | 9.07 | 98.5 | 63 | > 100 | 19.4 | 41.5 | > 80.4 | > 100 | 9.17 | 22 | 13.6 | > 100 | 23.3 | > 100 | 52.7 | > 100 | 53.9 | > 100 | 33.7 | > 100 | GI50 (OVCAR-8 ovarian): 3.45 µM; TGI (OVCAR-8 ovarian): 18.2 µM; GI50 (MCF7 breast): > 73.7 µM; TGI (MCF7 breast): > 100 µM |
| C[C@@H]1CN(C(=O)c2ccc(NC(=O)c3cc(O[C@H](C)c4c(Cl)ccc(F)c4Cl)c(N)nn3)cc2)C[C@H](C)N1 | 1 | 3.73 | 2.46 | 6.88 | 14.8 | 28.2 | 1.45 | 5 | 0.181 | 0.356 | 2.42 | 7.03 | 2.02 | 3.99 | 2.16 | 5.69 | 3.89 | 14.5 | 3.53 | 12.4 | GI50 (OVCAR-8 ovarian): 3.44 µM; TGI (OVCAR-8 ovarian): 10.3 µM; GI50 (MCF7 breast): 0.845 µM; TGI (MCF7 breast): 4.77 µM |
